Literature values as cited in patent US20260033492A1, “Pest Repellents and Uses Thereof” (priority 2020, published 2026).

Columns and labels:
insects = conditions: in vivo
salamander larvae = conditions: in vivo
[1] = in vivo
acetylcholinesterase = acetylcholinesterase (Homo sapiens, UniProt P22303); conditions: in humans
acetylcholinesterase, sequence (P22303 32-614): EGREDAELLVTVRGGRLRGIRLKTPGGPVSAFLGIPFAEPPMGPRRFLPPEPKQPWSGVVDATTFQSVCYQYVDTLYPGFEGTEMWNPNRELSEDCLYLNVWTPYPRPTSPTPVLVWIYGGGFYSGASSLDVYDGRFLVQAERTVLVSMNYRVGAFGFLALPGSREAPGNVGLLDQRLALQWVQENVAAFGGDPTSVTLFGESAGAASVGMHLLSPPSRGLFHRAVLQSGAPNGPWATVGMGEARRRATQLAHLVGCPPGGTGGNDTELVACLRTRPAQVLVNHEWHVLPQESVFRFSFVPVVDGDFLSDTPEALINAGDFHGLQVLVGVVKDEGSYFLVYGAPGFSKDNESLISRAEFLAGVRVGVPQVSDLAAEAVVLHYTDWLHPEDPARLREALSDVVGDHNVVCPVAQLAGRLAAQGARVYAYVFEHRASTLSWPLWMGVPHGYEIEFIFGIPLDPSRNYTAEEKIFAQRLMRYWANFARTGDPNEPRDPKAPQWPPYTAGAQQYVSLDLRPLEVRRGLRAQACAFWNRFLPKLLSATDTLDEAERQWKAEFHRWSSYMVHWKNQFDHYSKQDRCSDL

Row | Compound | effectiveness at repelling insects relative to DEET (insects) | toxicity to salamander larvae (salamander larvae) | irritancy / skin reactions [1] | inhibition of acetylcholinesterase (acetylcholinesterase)
1 | CCC(C)OC(=O)N1CCCCC1CCO (stereo not shown) [Icaridin] | as effective as DEET | toxic to salamander larvae | – | –
2 | CCN(CC)C(=O)c1cccc(C)c1 [DEET, N,N-diethyl-meta-toluamide] | – | – | act as an irritant | inhibit acetylcholinesterase
